Test results: US9255094B2, “Pyrido[4,3-B]indoles and methods of use” (Medivation Technologies, Inc., priority 2009, dated 2016)

Biological target: T1, human recombinant serotonin (5-Hydroxytryptamine) 5-HT2A receptor (Homo sapiens, UniProt P28223)
T1 construct: expressed in transfected cells; host or cells: Chinese hamster ovary (CHO-K1) cells
Assay: Serotonin 5-HT2A radioligand binding assay ([3H]Ketanserin)
Settings: 0.5 nM [3H]Ketanserin, CHO-K1 cells; for inhibition at 1 µM: compound at 1 μM, read-out: Percent Inhibition of ligand binding, Serotonin (1 μM) 5-HT2A; for inhibition at 0.1 µM: compound at 0.1 μM, read-out: Percent Inhibition of ligand binding, Serotonin (0.1 μM) 5-HT2A
Experimental: Compounds of the invention were incubated with 0.5 nM [^3H]Ketanserin for 60 min at 25° C. Non-specific binding was estimated in the presence of 1 μM Mianserin. Receptor proteins were filtered and washed, the filters were then counted to determine [^3H]Ketanserin specifically bound. Compounds were screened at 1 μM or lower, using 1% DMSO as vehicle. Biochemical assay results are presented as the percent inhibition of specific binding in Table 4.

T1 sequence (P28223 whole entry): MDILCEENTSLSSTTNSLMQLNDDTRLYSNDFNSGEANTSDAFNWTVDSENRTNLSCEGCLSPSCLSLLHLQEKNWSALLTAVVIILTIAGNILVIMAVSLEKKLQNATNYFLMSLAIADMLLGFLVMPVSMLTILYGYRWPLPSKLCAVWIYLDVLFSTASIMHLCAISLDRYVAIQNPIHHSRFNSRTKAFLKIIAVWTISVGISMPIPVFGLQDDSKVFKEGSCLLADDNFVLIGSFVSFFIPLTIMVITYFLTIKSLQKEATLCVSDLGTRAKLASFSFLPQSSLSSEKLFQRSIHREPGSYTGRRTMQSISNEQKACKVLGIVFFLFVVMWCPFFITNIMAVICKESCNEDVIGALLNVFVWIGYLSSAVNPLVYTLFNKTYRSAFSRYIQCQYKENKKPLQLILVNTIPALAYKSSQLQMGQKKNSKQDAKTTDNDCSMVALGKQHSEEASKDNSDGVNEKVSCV

Compound	inhibition at 1 µM [%]	inhibition at 0.1 µM [%]
Cc1ccc2c(c1)c1c(n2CC(O)c2ccc(F)cc2)CCN(C)C1 (stereo not shown) [Compound 1-2, 2-(2,8-dimethyl-3,4-dihydro-1H-pyrido[4,3-b]indol-5(2H)-yl)-1-(4-fluorophenyl)ethanol]	91	–
CCC(O)(Cn1c2c(c3cc(C)ccc31)CN(C)CC2)c1ccc(F)cc1 (stereo not shown) [Compound 1-5, 1-(2,8-dimethyl-3,4-dihydro-1H-pyrido[4,3-b]indol-5(2H)-yl)-2-(4-fluorophenyl)butan-2-ol]	102	–
CN1CCc2c(c3cc(Cl)ccc3n2CC(O)(c2ccc(F)cc2)C2CCC2)C1 (stereo not shown) [Compound 1-6, 2-(8-chloro-2-methyl-3,4-dihydro-1H-pyrido[4,3-b]indol-5(2H)-yl)-1-cyclobutyl-1-(4-fluorophenyl)ethanol]	97	–
CN1CCc2c(c3cc(F)ccc3n2CC(C)(O)c2ccncc2)C1 (stereo not shown) [Compound 1-9, 1-(8-fluoro-2-methyl-3,4-dihydro-1H-pyrido[4,3-b]indol-5(2H)-yl)-2-(pyridin-4-yl)propan-2-ol]	77	–
CN1CCc2c(c3ccc(Cl)cc3n2CC(C)(O)c2ccncc2)C1 (stereo not shown) [Compound 1-12, 1-(7-chloro-2-methyl-3,4-dihydro-1H-pyrido[4,3-b]indol-5(2H)-yl)-2-(pyridin-4-yl)propan-2-ol]	82	–
CN1CCc2c(c3cccc(F)c3n2CC(C)(O)c2ccncc2)C1 (stereo not shown) [Compound 1-13, 1-(6-fluoro-2-methyl-3,4-dihydro-1H-pyrido[4,3-b]indol-5(2H)-yl)-2-(pyridin-4-yl)propan-2-ol]	82	–
CN1CCc2c(c3ccccc3n2CC(C)(O)c2ccncc2)C1 (stereo not shown) [Compound 1-14, 1-(2-methyl-3,4-dihydro-1H-pyrido[4,3-b]indol-5(2H)-yl)-2-(pyridin-4-yl)propan-2-ol]	74	–
COc1ccc2c(c1)c1c(n2CC(C)(O)c2ccncc2)CCN(C)C1 (stereo not shown) [Compound 1-16, 1-(8-methoxy-2-methyl-3,4-dihydro-1H-pyrido[4,3-b]indol-5(2H)-yl)-2-(pyridin-4-yl)propan-2-ol]	50	–
CN1CCc2c(c3c(Cl)c(Cl)ccc3n2CC(C)(O)c2ccncc2)C1 (stereo not shown) [Compound 1-18, 1-(8,9-dichloro-2-methyl-3,4-dihydro-1H-pyrido[4,3-b]indol-5(2H)-yl)-2-(pyridin-4-yl)propan-2-ol]	71	–
CC(C)C(O)(Cn1c2c(c3cc(Cl)ccc31)CN(C)CC2)c1ccncc1 (stereo not shown) [Compound 1-21, 1-(8-chloro-2-methyl-3,4-dihydro-1H-pyrido[4,3-b]indol-5(2H)-yl)-3-methyl-2-(pyridin-4-yl)butan-2-ol]	–	68
Cc1ccc2c(c1)c1c(n2CC(O)(c2ccncc2)C(C)C)CCN(C)C1 (stereo not shown) [Compound 1-22, 1-(2,8-dimethyl-3,4-dihydro-1H-pyrido[4,3-b]indol-5(2H)-yl)-3-methyl-2-(pyridin-4-yl)butan-2-ol]	–	71
CCC(O)(Cn1c2c(c3cc(Cl)ccc31)CN(C)CC2)c1ccncc1 (stereo not shown) [Compound 1-23, 1-(8-chloro-2-methyl-3,4-dihydro-1H-pyrido[4,3-b]indol-5(2H)-yl)-2-(pyridin-4-yl)butan-2-ol]	–	62
Cc1ccc2c(c1)c1c(n2CC(C)(O)c2ccncn2)CCN(C)C1 (stereo not shown) [Compound 1-25, 1-(2,8-dimethyl-3,4-dihydro-1H-pyrido[4,3-b]indol-5(2H)-yl)-2-(pyrimidin-4-yl)propan-2-ol]	–	17
CN1CCc2c(c3cc(Cl)ccc3n2CC(C)(O)c2ccncn2)C1 (stereo not shown) [Compound 1-26, 1-(8-chloro-2-methyl-3,4-dihydro-1H-pyrido[4,3-b]indol-5(2H)-yl)-2-(pyrimidin-4-yl)propan-2-ol]	–	23
CN1CCc2c(c3cc(Cl)ccc3n2CC(C)(O)c2cnccn2)C1 (stereo not shown) [Compound 1-27, 1-(8-chloro-2-methyl-3,4-dihydro-1H-pyrido[4,3-b]indol-5(2H)-yl)-2-(pyrazin-2-yl)propan-2-ol]	–	40
Cc1ccc2c(c1)c1c(n2CC(C)(O)c2cnccn2)CCN(C)C1 (stereo not shown) [Compound 1-28, 1-(2,8-dimethyl-3,4-dihydro-1H-pyrido[4,3-b]indol-5(2H)-yl)-2-(pyrazin-2-yl)propan-2-ol]	–	30
Cc1ccc2c(c1)c1c(n2CC(C)(O)c2ccncc2)CCN(C)C1 (stereo not shown) [Compound 1-52, 1-(1,2,3,4-tetrahydro-2,8-dimethylpyrido[4,3-b]indol-5-yl)-2-(pyridin-4-yl)propan-2-ol]	88	–
CN1CCc2c(c3cc(Cl)ccc3n2CC(C)(O)c2cccnc2)C1 (stereo not shown) [Compound 1-54, 1-(8-chloro-1,2,3,4-tetrahydro-2-methylpyrido[4,3-b]indol-5-yl)-2-(pyridin-3-yl)propan-2-ol]	77	–
COc1ccc(C(C)(O)Cn2c3c(c4cc(Cl)ccc42)CN(C)CC3)cc1F (stereo not shown) [Compound 1-59, 1-(8-chloro-1,2,3,4-tetrahydro-2-methylpyrido[4,3-b]indol-5-yl)-2-(3-fluoro-4-methoxyphenyl)propan-2-ol]	96	–
